Experiments:
[1] = system: U251 cells expressing Fluc construct; assay: control Fluc (full length luciferase) reporter assay in U251 cells; format: cell-based; conditions: Homo sapiens, U-251, 6 h; Concn 50 uM; read-out: Fluc Imax % Inh
Method: The oncogenic activity of HuR is driven by subcellular localization into the cytoplasm and formation of multimers of HuR. To develop cell based assays to characterize the ability of small molecules to disrupt this process, a split luciferase assay detecting the formation of HuR dimers was developed. The assays were performed in 96 well plates with clear bottom (Corning Inc., Corning, NY). Cells with designed constructs (30,000-50,000 in number) were plated per well; the constructs were induced by doxycycline (0.75 ug/ml) for 48 hours. The evaluated compounds at different concentrations and the corresponding vehicle as the control were administered for 6 hours. The luminescence signals were detected by using InfinitiM200 plate reader (TECAN, Morrisville, NC) in the presence of the luciferase substrate luciferin (D-Luciferin, potassium salt), which was purchased from GoldBio (St Louis, MO). A multichannel pipette (XL 3000I™, Denville Scientific, South Plainfield, NJ) was used in all procedures to ensure the experiment quality. […]
Squares represent luminescence signal from reporter representing HuR dimers (U251 cells co-expressing HuR-Nluc and HuR-Cluc constructs); circles represent luminescence signal from control reporter (U251 cells expressing Fluc construct). Results are shown as mean+SD.

AAK1 = AAK1 (Homo sapiens, UniProt Q2M2I8); assay: SelectScreen kinase profiling, LanthaScreen Binding
Method: (§1) The kinase inhibitory potentials of compounds as described herein (e.g., SRI-42127 and SRI-41664) were evaluated by ThermoFisher Scientific's SelectScreen™ Kinase Profiling Service. The following kinase inhibitory assays were utilized: ZLYTE (Madison, WI) for NTRK1, PIM1, and cMET kinases; LanthaScreen Binding (Madison, WI) for AAK1 kinase; and Adapta (Madison, WI) for IRAK1 kinase.

IRAK1 = IRAK1 (Homo sapiens, UniProt P51617); assay: SelectScreen kinase profiling, Adapta; format: biochemical
Method: as §1

PIM1 = PIM1 (Homo sapiens, UniProt P11309); assay: SelectScreen kinase profiling, ZLYTE; format: biochemical
Method: as §1

TRKA (NTRK1) = TRKA (NTRK1) (Homo sapiens, UniProt P04629); assay: SelectScreen kinase profiling, ZLYTE; format: biochemical
Method: as §1

cMET = cMET (Homo sapiens, UniProt P08581); assay: SelectScreen kinase profiling, ZLYTE; format: biochemical
Method: as §1

LN229 glioma cell line = assay: PrestoBlue cell viability assay; format: cell-based; conditions: Homo sapiens, LN-229; LN229, 48 hours of treatment
Method: (§2) PrestoBlue cell viability reagent (ThermoFisher Scientific; Waltham, MA) was used for cell viability assays. The inhibitory dose-response data were normalized to the control (treatment with vehicle); the inhibitory dose-response curves, which were fitted by using Boltzmann equation, and the corresponding IC50s were generated by using OriginPro software (OriginLab Corporation, CA).
(§3) The glioma suppressive potentials of the new class of HuR multimerization inhibitors were evaluated by utilizing SRI-41664 and SRI-42127 compounds in several cell-based assays. First, it was confirmed that the SRI-41664 and SRI-42127 compounds are cytotoxic for established and PDGx cell lines. FIG. 5A illustrates the inhibitory dose responses of SRI-41664 and SRI-42127 compounds in the established U251, LN229, and the PDGx XD456 glioma cell lines. […] An HuR-overexpression approach was employed to confirm SRI-42127 inhibitory potency against HuR dimerization.

[2] = system: PDGx XD456 glioma cell line; assay: PrestoBlue cell viability assay; format: cell-based; conditions: Glioma cell; XD456, 48 hours of treatment
Method: as §2, §3

U251 glioma cell line = assay: PrestoBlue cell viability assay; format: cell-based; conditions: Homo sapiens, U-251, 48 h, U251, 48 hours of treatment; read-out: IC50 cell viability
Method: as §2, §3

[3] = system: U251 and XD456 glioma cell lines; assay: western blotting of glioma cell fractions (Bcl2, Mcl1, SOX2, cleaved PARP, cleaved caspase 3); format: cell-based; conditions: U251 and XD456, 10 uM for 48 hours
Method: Western blotting was performed. Nuclear and cytoplasmic protein fractionations were performed using NE-PER Nuclear and Cytoplasmic extraction reagents (ThermoFisher Scientific). Anti-lamin A/C and anti-Tubulin alpha antibodies were utilized to verify nuclear and cytoplasmic fractions, respectively. Antibodies against lamin A/C, cleaved PARP, cleaved caspase 3, SOX2, and Mcl1 were purchased from Cell Signaling Technology (Danvers, MA). Anti-Tubulin alpha antibody was purchased from Sigma-Aldrich. Antibodies against HuR, actin, and Bcl2 were purchased from Santa Cruz Biotechnology (Santa Cruz, CA). Polyclonal anti-HuR antibody for HuR/mRNA co-immunoprecipitation was purchased from MBL International (Woburn, MA).
In FIG. 8B, representative western blots confirm reduction of Bcl2 and Mcl1 proteins in cytoplasmic fractions of U251 and XD456 cell lines following treatment with compounds as described herein, 10 uM for 48 hours. SOX2 reduction in nuclear fractions indicates decrease of tumorigenicity of cell lines after treatment with compounds as described herein. Actin and Lamin A/C were utilized for data normalization in cytoplasmic and nuclear fractions, respectively.
In FIG. 8C, representative western blots illustrate appearances of cleaved PARP and cleaved caspase 3 in glioma cell lines after treatment with compounds as described herein, 10 uM for 48 hours. […]

Chain of TRKA (NTRK1) (P04629 33-796): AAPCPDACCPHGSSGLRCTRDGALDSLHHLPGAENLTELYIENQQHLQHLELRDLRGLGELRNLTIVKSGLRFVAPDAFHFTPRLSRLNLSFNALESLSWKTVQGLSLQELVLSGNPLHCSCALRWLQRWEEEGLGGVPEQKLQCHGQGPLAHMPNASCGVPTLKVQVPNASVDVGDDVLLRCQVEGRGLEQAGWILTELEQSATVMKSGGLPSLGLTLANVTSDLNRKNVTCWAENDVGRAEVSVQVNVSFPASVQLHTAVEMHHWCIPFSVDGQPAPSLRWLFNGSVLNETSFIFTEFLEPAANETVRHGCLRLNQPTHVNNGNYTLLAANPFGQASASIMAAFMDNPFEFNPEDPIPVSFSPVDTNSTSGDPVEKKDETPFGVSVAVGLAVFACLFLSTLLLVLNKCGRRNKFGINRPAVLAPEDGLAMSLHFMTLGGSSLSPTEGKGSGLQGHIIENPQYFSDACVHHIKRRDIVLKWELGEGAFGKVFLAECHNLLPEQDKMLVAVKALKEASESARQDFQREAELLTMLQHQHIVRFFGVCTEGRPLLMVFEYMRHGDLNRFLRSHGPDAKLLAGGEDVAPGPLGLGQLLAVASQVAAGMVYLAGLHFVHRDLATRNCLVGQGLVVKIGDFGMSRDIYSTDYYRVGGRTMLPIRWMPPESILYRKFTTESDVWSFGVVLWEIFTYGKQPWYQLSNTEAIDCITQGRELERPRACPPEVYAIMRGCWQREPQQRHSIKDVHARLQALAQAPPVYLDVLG
Chain of IRAK1 (P51617 whole entry): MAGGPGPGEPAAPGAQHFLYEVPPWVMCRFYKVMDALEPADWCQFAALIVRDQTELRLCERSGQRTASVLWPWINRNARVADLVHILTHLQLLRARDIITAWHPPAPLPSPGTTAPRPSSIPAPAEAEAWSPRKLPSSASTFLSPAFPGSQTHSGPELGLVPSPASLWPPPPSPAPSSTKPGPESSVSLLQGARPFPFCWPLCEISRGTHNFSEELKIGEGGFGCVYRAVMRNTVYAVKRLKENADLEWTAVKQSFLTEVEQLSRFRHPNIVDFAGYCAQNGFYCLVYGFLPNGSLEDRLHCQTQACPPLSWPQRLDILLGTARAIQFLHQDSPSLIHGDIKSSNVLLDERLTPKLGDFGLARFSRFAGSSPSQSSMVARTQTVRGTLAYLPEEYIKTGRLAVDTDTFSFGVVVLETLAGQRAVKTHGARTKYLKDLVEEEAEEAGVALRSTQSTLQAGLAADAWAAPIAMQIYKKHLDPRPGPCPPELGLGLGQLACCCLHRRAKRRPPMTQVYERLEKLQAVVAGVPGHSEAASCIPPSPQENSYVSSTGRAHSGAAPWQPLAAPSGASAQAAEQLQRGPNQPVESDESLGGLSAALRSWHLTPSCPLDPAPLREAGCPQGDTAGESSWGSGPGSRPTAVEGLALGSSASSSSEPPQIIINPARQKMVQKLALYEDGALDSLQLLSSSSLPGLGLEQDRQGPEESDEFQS
Chain of AAK1 (Q2M2I8 whole entry): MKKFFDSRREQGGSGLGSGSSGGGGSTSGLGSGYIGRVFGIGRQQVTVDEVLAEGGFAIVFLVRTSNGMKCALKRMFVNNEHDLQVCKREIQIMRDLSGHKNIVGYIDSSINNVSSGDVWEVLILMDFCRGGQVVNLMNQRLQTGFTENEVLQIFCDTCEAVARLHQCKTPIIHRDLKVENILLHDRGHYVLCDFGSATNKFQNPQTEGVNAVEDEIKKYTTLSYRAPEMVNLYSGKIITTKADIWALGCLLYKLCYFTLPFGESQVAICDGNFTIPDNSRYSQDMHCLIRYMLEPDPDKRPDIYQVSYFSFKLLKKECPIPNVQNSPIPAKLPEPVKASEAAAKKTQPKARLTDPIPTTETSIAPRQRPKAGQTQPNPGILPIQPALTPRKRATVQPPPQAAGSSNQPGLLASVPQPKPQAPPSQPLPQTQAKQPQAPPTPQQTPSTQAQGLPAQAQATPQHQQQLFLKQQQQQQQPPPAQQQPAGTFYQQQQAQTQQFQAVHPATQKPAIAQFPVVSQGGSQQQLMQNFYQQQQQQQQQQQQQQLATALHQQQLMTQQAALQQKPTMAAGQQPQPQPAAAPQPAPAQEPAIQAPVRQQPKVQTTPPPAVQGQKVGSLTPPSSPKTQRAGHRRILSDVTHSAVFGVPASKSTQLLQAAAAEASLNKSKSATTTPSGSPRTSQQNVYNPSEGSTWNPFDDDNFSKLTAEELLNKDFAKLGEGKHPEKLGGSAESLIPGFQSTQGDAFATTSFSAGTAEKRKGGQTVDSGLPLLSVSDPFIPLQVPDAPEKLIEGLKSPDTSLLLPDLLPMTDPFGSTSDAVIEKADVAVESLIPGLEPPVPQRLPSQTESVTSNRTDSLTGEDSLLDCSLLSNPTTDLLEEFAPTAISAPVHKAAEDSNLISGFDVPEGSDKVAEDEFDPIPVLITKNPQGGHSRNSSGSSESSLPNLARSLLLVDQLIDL
Chain of cMET (P08581 25-1390): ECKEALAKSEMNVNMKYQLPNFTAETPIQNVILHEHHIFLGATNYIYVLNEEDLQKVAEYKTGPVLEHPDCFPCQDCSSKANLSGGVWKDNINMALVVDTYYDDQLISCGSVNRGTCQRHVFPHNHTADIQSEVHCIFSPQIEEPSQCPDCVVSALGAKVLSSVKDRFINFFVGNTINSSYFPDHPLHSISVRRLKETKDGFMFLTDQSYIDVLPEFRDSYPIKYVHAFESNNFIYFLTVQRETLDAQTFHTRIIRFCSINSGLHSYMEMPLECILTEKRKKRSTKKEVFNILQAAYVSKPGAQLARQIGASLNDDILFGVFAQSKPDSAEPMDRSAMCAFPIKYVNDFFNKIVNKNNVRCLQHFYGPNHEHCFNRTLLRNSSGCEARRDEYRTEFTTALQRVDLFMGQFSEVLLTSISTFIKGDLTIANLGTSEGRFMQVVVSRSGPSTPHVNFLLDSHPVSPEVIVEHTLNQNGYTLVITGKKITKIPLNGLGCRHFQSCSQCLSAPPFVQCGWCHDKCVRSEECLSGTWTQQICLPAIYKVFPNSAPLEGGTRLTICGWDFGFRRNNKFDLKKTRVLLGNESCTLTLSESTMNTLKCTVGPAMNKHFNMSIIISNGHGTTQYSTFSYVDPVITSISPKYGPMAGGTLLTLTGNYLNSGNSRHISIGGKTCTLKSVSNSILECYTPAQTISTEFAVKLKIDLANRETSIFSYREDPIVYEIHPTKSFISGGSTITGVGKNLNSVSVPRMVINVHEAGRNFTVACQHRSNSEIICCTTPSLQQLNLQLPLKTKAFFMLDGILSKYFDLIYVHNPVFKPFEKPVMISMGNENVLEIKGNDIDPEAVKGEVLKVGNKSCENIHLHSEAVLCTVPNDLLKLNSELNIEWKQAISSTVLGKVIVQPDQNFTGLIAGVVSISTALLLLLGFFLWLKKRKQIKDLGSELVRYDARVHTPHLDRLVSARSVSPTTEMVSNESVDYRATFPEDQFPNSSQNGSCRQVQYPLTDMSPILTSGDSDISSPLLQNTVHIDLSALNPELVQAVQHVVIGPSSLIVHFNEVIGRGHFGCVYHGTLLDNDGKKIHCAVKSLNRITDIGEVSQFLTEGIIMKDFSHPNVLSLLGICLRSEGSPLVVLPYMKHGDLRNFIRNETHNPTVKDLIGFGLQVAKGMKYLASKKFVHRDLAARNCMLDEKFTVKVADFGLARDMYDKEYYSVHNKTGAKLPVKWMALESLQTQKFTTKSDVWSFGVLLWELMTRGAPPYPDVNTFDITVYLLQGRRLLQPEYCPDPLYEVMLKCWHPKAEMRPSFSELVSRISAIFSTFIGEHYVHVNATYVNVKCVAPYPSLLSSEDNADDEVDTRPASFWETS
Chain of PIM1 (P11309 whole entry): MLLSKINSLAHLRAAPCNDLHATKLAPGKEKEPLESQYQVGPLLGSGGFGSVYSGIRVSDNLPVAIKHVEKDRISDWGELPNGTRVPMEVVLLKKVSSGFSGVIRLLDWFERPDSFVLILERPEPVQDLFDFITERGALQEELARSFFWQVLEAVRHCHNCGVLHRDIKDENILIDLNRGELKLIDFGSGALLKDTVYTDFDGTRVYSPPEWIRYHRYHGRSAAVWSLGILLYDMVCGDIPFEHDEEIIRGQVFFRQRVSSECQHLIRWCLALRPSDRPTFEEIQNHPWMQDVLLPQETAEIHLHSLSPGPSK

IC50 (AAK1): 0.03 µM
IC50 (IRAK1): 0.3 µM
IC50 (PIM1): 0.829 µM
IC50 (TRKA (NTRK1)): 0.099 µM
IC50 (cMET): 5.98 µM
IC50 (LN229 glioma cell line): 3.8 ± 0.5 µM
IC50 [2]: 4.8 ± 1.1 µM
IC50 (U251 glioma cell line): 3.4 ± 0.5 µM
SMILES: c1cc2cn[nH]c2cc1-c1cnc2ccc(NC3CCOCC3)nn12 [Compound 5]
inhibition at 50 µM [1]: 38%
Bcl2 and Mcl1 protein levels in cytoplasmic fractions [3]: dramatic reduction
cleaved caspase 3 and cleaved PARP (apoptosis) [3]: appearances of cleaved caspase 3 and cleaved PARP

— patent US12435091B2, “RNA-binding protein multimerization inhibitors and methods of use thereof” (THE UAB RESEARCH FOUNDATION, priority 2020, dated 2025)
